Measurements: patent US20070078120A1, “Novel piperidine derivative” (priority 2003, published 2007)
Structures can show the parent of a compound that is named as a salt.

Experiments:
LDL receptor [1] = test: LDL receptor activity: amount of DiI-LDL uptaken into HepG2 cells; assay type: cell-based, human; conditions: DiI-LDL uptake into HepG2 cells, control group = 100%
Method: A preparation of 1,1′-dioctadecyl-3,3,3′,3′-tetramethylindocarbocyanine perchlorate (DiI)-labeled LDL (DiI-LDL) was carried out as follows. That is, DiI (invitrogen, the U.S.) was mixed with human LDL (CHEMICON, the U.S.), and the mixture was kept for 8 hours at 37° C. Thereto a specific density solution (d=1.182) was added and mixed, and then treated with super centrifugation operation (32 k rpm, 14 hours; using Beckman Ti55.2 rotator). After the centrifugation, the DiI labeled LDL fraction was taken up and prepared via a dialysis against saline.
The action on LDL receptor was determined with the amount of the DiI-LDL uptaken into HepG2 cells which was as an indicator. Namely, human hepatoma cell line HepG2 was bought from DAINIPPON PHARMACEUTICAL CO., LTD (Osaka, Japan) and it was used for the experiment. The HepG2 cells were plated on a 96 well plate and incubated with Dulbecco's modified Eagle/F-12 medium (DMEM/F-12) containing 10% fetal bovine serum and antibiotics for 2-3 days at 37° C. in a CO2 incubator. After washing the cells, DMEM/F-12 media containing the test compound, 10% delipoprotein serum and antibiotics was added thereto and cells were incubated for 19 hours at 37° C. The DiI-LDL was added thereto, and cells were incubated for additional 5 hours at 37° C. in a CO2 incubator. For the measurement of the amount of nonspecific DiI-LDL uptake, another 30-50 times the nonlabeled LDL was added additively to each well. After washing cells with Dulbecco's phosphate buffer (SIGMA, the U.S.), Dulbecco's phosphate buffer was added to each well, and then the fluorescence value was measured with a fluorescence plate reader to determine the amount of the DiI-LDL uptaken into cells. After measuring the fluorescence, the Dulbecco's phosphate buffer was removed. Cells were dissolved in 1N sodium hydroxide solution. Using a part of the solution, the protein amount was measured. The action of each compound on LDL receptor was estimated on the basis of 100% of the control group, using the value given by subtracting the nonspecifically uptaken amount from the calculated fluorescence value/protein amount.

LDL receptor [2] = test: Measurement of LDL receptor expression: LDL-R protein amount by immunoblotting in HepG2 cells; assay type: cell-based, human; conditions: compared with the control group
Method: We investigated the effect of each test compound on the amount of LDL receptor in HepG2 cells, a human hepatoma cell line. Cells were seeded in each well of 6-well plates at the density of 7.5×10^5 cells/well (day 1). On day 3, the culture media was changed to a media containing lipoprotein deficient serum and the test compound. On day 4, the cells were scraped and then collected by centrifugation operation. The collected cells were lysed in a buffer containing 0.1% TritonX-100, treated with centrifugation, and then the supernatant was given as a cell protein solution. Using the prepared cell protein solution, the LDL-R protein amount was determined with an immunoblotting procedure.
HepG2 cells were treated with the compound of Examples 1-4, and then LDL receptor protein amount was determined by immunoblotting procedure.

Compound: 1-(2-methoxyphenyl)-4-[3-(methylamino)-phenyl]piperidine-4-carbonitrile and 4-[3-(dimethylamino)-phenyl]-1-(2-methoxyphenyl)piperidine-4-carbonitrile [Example 20]
- Activity of LDL receptor(%) (LDL receptor [1]; 10 μM): 123%

Compound: COc1cccc([C@]2(C#N)CC[C@H](N3CCNCC3)CC2)c1 (as salt: hydrochloride) [Example 58-1, trans-1-(3-methoxyphenyl)-4-piperazin-1-yl-cyclohexanecarbonitrile dihydrochloride]
- melting point: 159 to 160 °C

Compound: COc1cccc(C2(C(N)=O)CC3CCC(C2)N3c2ccccc2OC)c1 (centres unmarked) [Example 49-f, 8-(2-Methoxyphenyl)-3-(3-methoxyphenyl)-8-azabicyclo-[3.2.1]octane-3-carboxyamide]
- Activity of LDL receptor(%) (LDL receptor [1]; 10 μM): 135%

Compound: COc1cccc(C2(C#N)CCC(N3CCN(c4ncccn4)CC3)CC2)c1 (centres unmarked) [Example 82, 1-(3-methoxyphenyl)-4-(4-pyrimidin-2-yl-piperazin-1-yl)cyclohexanecarbonitrile]
- Activity of LDL receptor(%) (LDL receptor [1]; 10 μM): 125%

Compound: COc1cccc(C2(CO)CCN(c3ccccc3OC)CC2)c1 [Example 12, [1-(2-Methoxyphenyl)-4-(3-methoxyphenyl)piperidin-4-yl]-methanol]
- Activity of LDL receptor(%) (LDL receptor [1]; 10 μM): 134%

Compound: COc1cccc(C2(C#N)CCN(C3CCN(Cc4ccccc4)CC3)CC2)c1 [Example 89, 1′-benzyl-4-(3-methoxyphenyl)-1,4′-bipiperidine-4-carbonitrile]
- Activity of LDL receptor(%) (LDL receptor [1]; 10 μM): 195%

Compound: COc1cccc(C2(C#N)CCN(c3ccccc3OC)CC2)c1 [Example 1-4, 1-(2-methoxyphenyl)-4-(3-methoxyphenyl)-piperidine-4-carbonitrile]
- Activity of LDL receptor(%) (LDL receptor [1]; 10 μM): 134%
- LDL receptor protein amount (immunoblotting) (LDL receptor [2]; 1 μM): superior activity enhancing the protein amount of LDL receptor
- LDL receptor protein amount (immunoblotting) (LDL receptor [2]; 10 μM): superior activity enhancing the protein amount of LDL receptor

Compound: COc1cccc(C2(C#N)CCN(c3ncccc3OCc3ccccc3)CC2)c1 [Example 6-3, 1-[3-(Benzyloxy)pyridin-2-yl]-4-(3-methoxyphenyl)-piperidine-4-carbonitrile]
- Activity of LDL receptor(%) (LDL receptor [1]; 10 μM): 127%

Compound: COc1cccc(C2(CN3CCCCC3)CCN(c3ccccc3OC)CC2)c1 [Example 55-1, 1-(2-methoxyphenyl)-4-(3-methoxyphenyl)-4-(piperidin-1-ylmethyl)piperidine]
- Activity of LDL receptor(%) (LDL receptor [1]; 1 μM): 141%

Compound: COc1cccc(C2(C(=S)NCc3ccccc3)CCN(c3ncccn3)CC2)c1 [Example 44, N-benzyl-4-(3-methoxyphenyl)-1-pyrimidin-2-ylpiperidine-4-carbothioamide]
- Activity of LDL receptor(%) (LDL receptor [1]; 3 μM): 135%

Compound: COc1cccc([C@]2(C#N)CC[C@H](N3CCNCC3)CC2)c1 [Example 58-1, trans-1-(3-methoxyphenyl)-4-piperazin-1-yl-cyclohexanecarbonitrile dihydrochloride]
- Activity of LDL receptor(%) (LDL receptor [1]; 10 μM): 152%

Compound: COc1cccc(C2(C#N)CCN(C3CCNCC3)CC2)c1 [Example 85, 4-(3-methoxyphenyl)-1,4′-bipiperidine-4-carbonitrile dihydrochloride]
- Activity of LDL receptor(%) (LDL receptor [1]; 10 μM): 149%

Compound: COc1cccc(C2(C#N)CCN(c3nc4ccccc4s3)CC2)c1 [Example 7-3, 1-(1,3-Benzothiazol-2-yl)-4-(3-methoxyphenyl)piperidine-4-carbonitrile]
- Activity of LDL receptor(%) (LDL receptor [1]; 3 μM): 125%

Compound: COc1cccc(C2(C(=O)NCc3ccccc3)CCN(c3ncccn3)CC2)c1 [Example 43-2, N-benzyl-4-(3-methoxyphenyl)-1-pyrimidin-2-ylpiperidine-4-carboxyamide]
- Activity of LDL receptor(%) (LDL receptor [1]; 10 μM): 116%

Compound: COc1cccc([C@]2(C#N)CC[C@@H](NCc3ccccc3)CC2)c1 [Example 105, cis-4-(benzylamino)-1-(3-methoxyphenyl)-cyclohexanecarbonitrile]
- Activity of LDL receptor(%) (LDL receptor [1]; 10 μM): 139%
